Patent US20260132140A1, “IMIDAZOLYL-AMINO-PYRAZINE-CARBONITRILS AS CHK-1 INHIBITORS” (BenevolentAI Bio Limited, priority 2022, published 2026)
Like-named read-outs stand apart in the source and are kept apart here.

Key:
[1] = molecular target: P-glycoprotein (P-gp, MDR1) (Homo sapiens, UniProt P08183); assay: in vitro; conditions: dog, MDCK-MDR1, pH 7.4
BCRP = molecular target: T1, BCRP (Homo sapiens, UniProt Q9UNQ0); assay: in vitro; conditions: dog, pH 7.4
T1 sequence (Q9UNQ0 1-655): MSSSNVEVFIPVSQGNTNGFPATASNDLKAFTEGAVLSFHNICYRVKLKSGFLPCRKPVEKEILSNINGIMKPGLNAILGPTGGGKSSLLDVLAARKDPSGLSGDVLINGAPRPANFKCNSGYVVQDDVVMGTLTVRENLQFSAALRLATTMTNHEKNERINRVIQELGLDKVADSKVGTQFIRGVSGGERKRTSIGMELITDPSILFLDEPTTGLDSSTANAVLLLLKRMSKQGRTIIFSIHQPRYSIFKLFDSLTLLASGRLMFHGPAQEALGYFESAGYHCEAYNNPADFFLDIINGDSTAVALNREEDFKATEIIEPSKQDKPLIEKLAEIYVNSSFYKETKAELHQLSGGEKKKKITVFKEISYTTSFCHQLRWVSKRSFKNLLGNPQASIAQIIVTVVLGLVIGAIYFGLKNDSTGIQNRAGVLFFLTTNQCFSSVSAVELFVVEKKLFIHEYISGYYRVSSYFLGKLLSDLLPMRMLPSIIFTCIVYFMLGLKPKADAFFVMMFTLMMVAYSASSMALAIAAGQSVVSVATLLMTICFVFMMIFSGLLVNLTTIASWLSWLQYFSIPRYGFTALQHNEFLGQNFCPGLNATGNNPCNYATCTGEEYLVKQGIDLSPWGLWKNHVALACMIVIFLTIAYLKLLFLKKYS

in vitro = conditions: dog, MDCK, pH 7.4
human Chk1 kinase [2] = molecular target: T2, human Chk1 kinase (Homo sapiens, UniProt O14757); assay: biochemical
T2 sequence (O14757 1-476): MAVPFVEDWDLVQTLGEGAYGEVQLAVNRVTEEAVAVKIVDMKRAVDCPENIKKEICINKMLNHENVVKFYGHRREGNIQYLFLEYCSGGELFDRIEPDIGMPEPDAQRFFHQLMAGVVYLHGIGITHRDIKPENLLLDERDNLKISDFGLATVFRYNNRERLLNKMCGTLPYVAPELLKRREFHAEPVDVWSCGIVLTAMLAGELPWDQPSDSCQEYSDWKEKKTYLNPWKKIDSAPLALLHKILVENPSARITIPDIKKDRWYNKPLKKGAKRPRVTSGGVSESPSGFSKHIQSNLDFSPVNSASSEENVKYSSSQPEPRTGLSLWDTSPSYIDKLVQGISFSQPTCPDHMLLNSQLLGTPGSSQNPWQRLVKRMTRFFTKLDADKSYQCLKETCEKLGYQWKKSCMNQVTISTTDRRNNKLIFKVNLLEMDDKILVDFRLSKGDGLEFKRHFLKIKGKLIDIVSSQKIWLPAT

human Chk2 kinase [3] = molecular target: T3, human Chk2 kinase (Homo sapiens, UniProt O96017); assay: biochemical
T3 sequence (O96017 whole entry): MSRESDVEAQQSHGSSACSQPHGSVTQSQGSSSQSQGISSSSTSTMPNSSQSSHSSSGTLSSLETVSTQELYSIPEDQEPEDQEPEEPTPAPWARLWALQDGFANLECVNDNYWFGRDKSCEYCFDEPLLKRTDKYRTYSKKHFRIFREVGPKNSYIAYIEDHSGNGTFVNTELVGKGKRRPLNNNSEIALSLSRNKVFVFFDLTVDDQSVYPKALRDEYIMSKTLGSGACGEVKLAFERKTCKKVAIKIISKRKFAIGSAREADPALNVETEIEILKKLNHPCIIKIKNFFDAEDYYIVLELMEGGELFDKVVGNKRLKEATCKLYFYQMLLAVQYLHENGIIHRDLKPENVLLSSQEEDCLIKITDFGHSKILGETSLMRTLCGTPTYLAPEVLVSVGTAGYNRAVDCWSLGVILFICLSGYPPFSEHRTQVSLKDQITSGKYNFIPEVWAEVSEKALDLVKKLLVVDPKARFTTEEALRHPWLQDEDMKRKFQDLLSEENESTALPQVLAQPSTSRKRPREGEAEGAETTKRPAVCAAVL

RSK1 = molecular target: T4, RSK1 (Homo sapiens, UniProt Q15418); assay: RSK1-4 kinase assay (Eurofins KinaseProfiler, radiometric): RSK1; type: biochemical; conditions: approximately ATP Km
T4 construct: purchased Eurofins (KinaseProfiler service)
T4 sequence (Q15418 whole entry): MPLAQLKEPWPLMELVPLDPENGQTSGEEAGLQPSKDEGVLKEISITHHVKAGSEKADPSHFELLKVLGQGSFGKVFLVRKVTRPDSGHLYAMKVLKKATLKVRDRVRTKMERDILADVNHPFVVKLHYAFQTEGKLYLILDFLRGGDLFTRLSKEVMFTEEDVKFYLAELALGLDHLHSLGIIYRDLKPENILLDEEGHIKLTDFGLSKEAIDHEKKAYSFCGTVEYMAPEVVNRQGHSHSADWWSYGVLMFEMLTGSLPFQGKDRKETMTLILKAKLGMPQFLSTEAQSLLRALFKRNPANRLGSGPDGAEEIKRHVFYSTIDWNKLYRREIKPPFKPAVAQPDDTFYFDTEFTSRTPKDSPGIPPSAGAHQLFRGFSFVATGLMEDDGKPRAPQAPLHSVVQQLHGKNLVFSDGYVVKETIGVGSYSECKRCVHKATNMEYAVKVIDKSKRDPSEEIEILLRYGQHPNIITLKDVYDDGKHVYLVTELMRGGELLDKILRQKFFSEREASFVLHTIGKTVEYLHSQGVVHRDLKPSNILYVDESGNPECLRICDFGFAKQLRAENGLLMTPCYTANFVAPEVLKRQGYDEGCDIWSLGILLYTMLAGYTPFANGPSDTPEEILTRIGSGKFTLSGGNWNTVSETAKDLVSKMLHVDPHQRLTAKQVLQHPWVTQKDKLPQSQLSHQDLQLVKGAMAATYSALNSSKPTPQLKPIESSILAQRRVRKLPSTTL
Description: (§1) The radiometric kinase activity assays were run at approximately the ATP Km for each kinase and the IC50 data is shown in Table 24.

RSK2 = molecular target: T5, RSK2 (Homo sapiens, UniProt P51812); assay: RSK1-4 kinase assay (Eurofins KinaseProfiler, radiometric): RSK2; type: biochemical; conditions: approximately ATP Km
T5 construct: purchased Eurofins (KinaseProfiler service)
T5 sequence (P51812 whole entry): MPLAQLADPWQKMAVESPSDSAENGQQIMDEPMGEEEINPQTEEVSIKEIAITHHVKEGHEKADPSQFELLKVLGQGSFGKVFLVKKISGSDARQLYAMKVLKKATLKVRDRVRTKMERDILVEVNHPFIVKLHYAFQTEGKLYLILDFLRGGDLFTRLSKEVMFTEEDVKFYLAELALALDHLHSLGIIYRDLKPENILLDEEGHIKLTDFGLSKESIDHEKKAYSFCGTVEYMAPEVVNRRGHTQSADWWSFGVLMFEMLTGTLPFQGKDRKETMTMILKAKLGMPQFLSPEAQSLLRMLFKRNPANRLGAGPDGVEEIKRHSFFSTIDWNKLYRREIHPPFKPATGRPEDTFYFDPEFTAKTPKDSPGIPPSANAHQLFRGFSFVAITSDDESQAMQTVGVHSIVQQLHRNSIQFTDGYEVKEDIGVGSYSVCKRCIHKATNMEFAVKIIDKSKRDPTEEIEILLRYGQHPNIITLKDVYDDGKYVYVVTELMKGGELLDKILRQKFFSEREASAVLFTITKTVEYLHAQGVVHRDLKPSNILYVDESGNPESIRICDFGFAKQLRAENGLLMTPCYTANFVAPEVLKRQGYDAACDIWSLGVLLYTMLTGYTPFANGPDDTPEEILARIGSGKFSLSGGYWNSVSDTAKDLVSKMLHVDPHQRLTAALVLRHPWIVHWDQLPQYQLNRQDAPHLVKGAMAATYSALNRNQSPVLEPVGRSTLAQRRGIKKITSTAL
Description: as §1

RSK3 = molecular target: T6, RSK3 (Homo sapiens, UniProt Q15349); assay: RSK1-4 kinase assay (Eurofins KinaseProfiler, radiometric): RSK3; type: biochemical; conditions: approximately ATP Km
T6 construct: purchased Eurofins (KinaseProfiler service)
T6 sequence (Q15349 whole entry): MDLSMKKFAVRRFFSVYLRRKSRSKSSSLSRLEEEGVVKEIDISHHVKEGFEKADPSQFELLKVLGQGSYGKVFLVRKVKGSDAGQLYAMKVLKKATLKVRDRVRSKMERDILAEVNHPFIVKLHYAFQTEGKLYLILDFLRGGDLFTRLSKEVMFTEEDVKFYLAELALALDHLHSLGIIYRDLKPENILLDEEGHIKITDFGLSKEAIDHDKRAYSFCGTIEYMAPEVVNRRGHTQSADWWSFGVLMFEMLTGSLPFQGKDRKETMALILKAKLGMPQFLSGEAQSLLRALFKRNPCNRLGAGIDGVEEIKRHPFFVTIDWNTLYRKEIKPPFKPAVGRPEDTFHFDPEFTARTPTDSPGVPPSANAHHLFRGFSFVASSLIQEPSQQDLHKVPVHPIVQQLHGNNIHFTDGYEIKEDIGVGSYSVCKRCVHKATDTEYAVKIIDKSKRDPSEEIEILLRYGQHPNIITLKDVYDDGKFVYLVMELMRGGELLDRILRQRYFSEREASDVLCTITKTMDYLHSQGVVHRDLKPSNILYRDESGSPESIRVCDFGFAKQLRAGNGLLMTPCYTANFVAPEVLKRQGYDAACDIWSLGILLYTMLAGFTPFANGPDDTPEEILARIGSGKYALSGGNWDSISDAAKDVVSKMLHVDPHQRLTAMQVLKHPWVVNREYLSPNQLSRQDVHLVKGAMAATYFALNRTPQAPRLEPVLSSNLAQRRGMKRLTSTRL
Description: as §1

RSK4 = molecular target: T7, RSK4 (Homo sapiens, UniProt Q9UK32); assay: RSK1-4 kinase assay (Eurofins KinaseProfiler, radiometric): RSK4; type: biochemical; conditions: approximately ATP Km
T7 construct: purchased Eurofins (KinaseProfiler service)
T7 sequence (Q9UK32 whole entry): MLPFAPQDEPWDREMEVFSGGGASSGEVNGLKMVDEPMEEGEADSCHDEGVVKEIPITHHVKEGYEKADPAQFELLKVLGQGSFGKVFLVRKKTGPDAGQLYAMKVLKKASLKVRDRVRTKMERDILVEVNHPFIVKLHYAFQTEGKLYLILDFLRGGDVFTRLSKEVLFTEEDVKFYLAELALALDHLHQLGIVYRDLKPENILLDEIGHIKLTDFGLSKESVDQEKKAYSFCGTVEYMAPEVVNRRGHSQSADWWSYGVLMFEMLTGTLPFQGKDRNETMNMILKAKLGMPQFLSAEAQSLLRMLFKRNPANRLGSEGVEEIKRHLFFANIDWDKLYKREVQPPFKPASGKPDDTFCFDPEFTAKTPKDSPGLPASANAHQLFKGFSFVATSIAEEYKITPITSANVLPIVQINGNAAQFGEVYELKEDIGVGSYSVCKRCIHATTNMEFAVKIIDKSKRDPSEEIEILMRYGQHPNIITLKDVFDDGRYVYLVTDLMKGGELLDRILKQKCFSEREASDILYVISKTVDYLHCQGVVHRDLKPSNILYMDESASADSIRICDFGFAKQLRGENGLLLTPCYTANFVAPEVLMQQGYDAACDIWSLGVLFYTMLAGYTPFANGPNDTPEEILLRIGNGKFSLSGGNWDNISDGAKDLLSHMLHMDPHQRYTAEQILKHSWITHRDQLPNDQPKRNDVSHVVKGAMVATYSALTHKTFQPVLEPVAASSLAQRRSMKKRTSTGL
Description: as §1

human Chk1 kinase [4] = molecular target: T2, human Chk1 kinase; assay: Human Chk1 HTRF (Homogeneous Time Resolved Fluorescence) enzyme assay; conditions: 1 nM Chk-1, 30 μM ATP
human Chk2 kinase [5] = molecular target: T3, human Chk2 kinase
GBM LN18 cells = assay: In vitro cell viability assay (Cell Titre Glo, 72 hours); type: cell-based; conditions: Homo sapiens, LN-18, read-out: LN18 pIC50 (converted)
Protocol: GBM LN18 cells were incubated with increasing concentrations of selected compounds of the invention for 72 hours prior to the measurement of ATP in metabolically viable cells with the Cell Titre® Glo Luminescent reagent. A 10-point concentration response curve up to a maximum concentration of 10 μM was tested.
The percent (%) effect i.e., inhibition at each concentration of compound was calculated based on, and relative to the amount of inhibition produced in the vehicle control and inhibited control wells contained within each plate.

[6] = test system: pChk1(Ser296) in SW620 cells; assay: pChk1(Ser296) sandwich ELISA, cell-based on-target kinase activity; conditions: Homo sapiens, read-out: SW620 pIC50 (converted)
Protocol: ELISA assays were performed as per the manufacturer's protocol. […] Selected compounds of the invention were tested as a 8-point concentration response up to a maximum concentration of either 1 μM, 3 μM or 10 μM. The percent (%) effect i.e. inhibition at each concentration of compound was calculated based on, and relative to, the amount of inhibition produced in the vehicle control and inhibited control wells contained within each plate.

[7] = test system: 373 human wild-type kinases; assay: Kinome selectivity, Eurofins KinaseProfiler kinase screen; type: biochemical; conditions: panel of 373 human wild-type kinases, approximately ATP Km, top concentration 10 μM
Description: The radiometric kinase activity assays were run at approximately the ATP Km for each kinase.

[8] = SW-620, neocarzinostatin 7.5 μM, 2 hours

P-glycoprotein (P-gp, MDR1), sequence (P08183 whole entry): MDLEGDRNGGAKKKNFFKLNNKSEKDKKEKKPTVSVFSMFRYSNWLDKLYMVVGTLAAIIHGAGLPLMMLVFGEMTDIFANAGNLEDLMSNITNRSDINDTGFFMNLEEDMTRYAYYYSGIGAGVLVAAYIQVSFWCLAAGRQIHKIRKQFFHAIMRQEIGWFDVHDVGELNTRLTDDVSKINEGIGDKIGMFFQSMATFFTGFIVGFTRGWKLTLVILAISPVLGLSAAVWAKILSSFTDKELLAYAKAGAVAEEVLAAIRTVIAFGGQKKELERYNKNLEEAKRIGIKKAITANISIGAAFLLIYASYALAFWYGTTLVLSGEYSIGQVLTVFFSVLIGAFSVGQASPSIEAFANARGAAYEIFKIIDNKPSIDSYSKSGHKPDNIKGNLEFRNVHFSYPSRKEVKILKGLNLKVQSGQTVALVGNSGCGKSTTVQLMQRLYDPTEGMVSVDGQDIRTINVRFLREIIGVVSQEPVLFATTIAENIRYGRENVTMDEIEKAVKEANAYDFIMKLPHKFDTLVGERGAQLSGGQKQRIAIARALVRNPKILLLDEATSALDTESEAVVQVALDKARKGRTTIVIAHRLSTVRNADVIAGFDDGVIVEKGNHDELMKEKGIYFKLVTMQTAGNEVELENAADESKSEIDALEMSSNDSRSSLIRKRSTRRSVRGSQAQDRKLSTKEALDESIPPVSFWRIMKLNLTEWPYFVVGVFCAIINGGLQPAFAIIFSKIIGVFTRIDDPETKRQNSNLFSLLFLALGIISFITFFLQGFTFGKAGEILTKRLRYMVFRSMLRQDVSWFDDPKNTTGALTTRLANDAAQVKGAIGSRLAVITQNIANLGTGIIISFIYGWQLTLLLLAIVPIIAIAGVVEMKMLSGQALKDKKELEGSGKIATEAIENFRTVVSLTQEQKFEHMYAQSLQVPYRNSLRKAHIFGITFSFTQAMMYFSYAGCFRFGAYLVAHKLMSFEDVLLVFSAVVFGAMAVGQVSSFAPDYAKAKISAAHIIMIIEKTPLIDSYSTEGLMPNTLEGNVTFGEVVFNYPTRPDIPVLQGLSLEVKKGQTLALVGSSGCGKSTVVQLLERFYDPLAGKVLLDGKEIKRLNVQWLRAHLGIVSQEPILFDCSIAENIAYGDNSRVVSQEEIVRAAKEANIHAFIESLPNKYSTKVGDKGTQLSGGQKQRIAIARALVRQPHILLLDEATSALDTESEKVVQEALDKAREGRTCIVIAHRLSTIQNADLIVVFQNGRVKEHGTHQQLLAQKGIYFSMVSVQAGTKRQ

SMILES: N#Cc1cnc(Nc2cn(-c3ccc(N4CCN(CCC(F)(F)F)CC4)cc3)cn2)cn1 [Example 184, 5-((1-(4-(4-(3,3,3-Trifluoropropyl)piperazin-1-yl)phenyl)-1H-imidazol-4-yl)amino)pyrazine-2-carbonitrile]
- efflux ratio at 60 min, 1 μM [1]: 0.9
- efflux ratio at 60 min, 1 μM (BCRP): 1.1
- Papp A→B at 60 min, 1 μM (in vitro): 43 ×10⁻⁶ cm/s
- IC50 (human Chk1 kinase [2]): 0.1 to 0.316 µM
- IC50 (human Chk2 kinase [3]): > 100 µM

SMILES: CN1CCC12CN(c1ccc(-n3cnc(Nc4cnc(C#N)cn4)c3)cc1)C2 [Example 61, 5-((1-(4-(1-Methyl-1,6-diazaspiro[3.3]heptan-6-yl)phenyl)-1H-imidazol-4-yl)amino)pyrazine-2-carbonitrile]
- IC50 (RSK1): 6.78 µM
- IC50 (RSK2): 2.67 µM
- IC50 (RSK3): 1.92 µM
- IC50 (RSK4): 4.07 µM
- IC50 (human Chk1 kinase [2]): 0.01 to 0.0316 µM
- IC50 (human Chk2 kinase [3]): 10 to 100 µM

SMILES: CC1(C)CN(C2CCN(c3ccc(-n4cnc(Nc5cnc(C#N)cn5)c4)cc3)C2)C1 (single isomer, unassigned) [Example 124, 5-((1-(4-(3-(3,3-Dimethylazetidin-1-yl)pyrrolidin-1-yl)phenyl)-1H-imidazol-4-yl)amino)pyrazine-2-carbonitrile]
- IC50 (human Chk2 kinase [3]): 1 to 10 µM
- Chk1 pIC50 (human Chk1 kinase [4]): D (D: 7.5-8.0)

SMILES: N#Cc1cnc(Nc2cn(-c3ccc(N4CCN(CCF)CC4)cc3)cn2)cn1 [Example 183, 5-((1-(4-(4-(2-Fluoroethyl)piperazin-1-yl)phenyl)-1H-imidazol-4-yl)amino)pyrazine-2-carbonitrile]
- efflux ratio at 60 min, 1 μM [1]: 0.7
- efflux ratio at 60 min, 1 μM (BCRP): 1.4
- Papp A→B at 60 min, 1 μM (in vitro): 84 ×10⁻⁶ cm/s
- IC50 (human Chk1 kinase [2]): 0.0316 to 0.1 µM
- IC50 (human Chk2 kinase [3]): 10 to 100 µM

SMILES: CN1CCOC(c2ccc(-n3cnc(Nc4cnc(C#N)cn4)c3)cc2)C1 (single isomer, unassigned) [Example 106, 5-((1-(4-(4-Methylmorpholin-2-yl)phenyl)-1H-imidazol-4-yl)amino)pyrazine-2-carbonitrile]
- IC50 (human Chk2 kinase [5]): 10 to 100 µM

SMILES: CN(CCO)C1CCN(c2cccc(-n3cnc(Nc4cnc(C#N)cn4)c3)c2)C1 (single isomer, unassigned) [Example 110, 5-((1-(3-(3-((2-Hydroxyethyl)(methyl)amino)pyrrolidin-1-yl)phenyl)-1H-imidazol-4-yl)amino)pyrazine-2-carbonitrile]
- IC50 (human Chk2 kinase [3]): 10 to 100 µM
- Chk1 pIC50 (human Chk1 kinase [4]): D (D: 7.5-8.0)

SMILES: N#Cc1cnc(Nc2cn(-c3ccc(N4CCN5CCCC5C4)cc3)cn2)cn1 (single isomer, unassigned) [Example 118, 5-((1-(4-(Hexahydropyrrolo[1,2-a]pyrazin-2(1H)-yl)phenyl)-1H-imidazol-4-yl)amino)pyrazine-2-carbonitrile]
- IC50 (human Chk2 kinase [5]): > 100 µM

SMILES: CC1CN(C2CCN(c3ccc(-n4cnc(Nc5cnc(C#N)cn5)c4)cc3)C2)C1 (single isomer, unassigned) [Example 126, 5-((1-(4-(3-(3-Methylazetidin-1-yl)pyrrolidin-1-yl)phenyl)-1H-imidazol-4-yl)amino)pyrazine-2-carbonitrile]
- IC50 (human Chk2 kinase [3]): > 100 µM
- Chk1 pIC50 (human Chk1 kinase [4]): D (D: 7.5-8.0)

SMILES: CN1CCC12CCN(c1ccc(-n3cnc(Nc4cnc(C#N)cn4)c3)cc1)C2 (single isomer, unassigned) [Example 128, 5-((1-(4-(1-Methyl-1,6-diazaspiro[3.4]octan-6-yl)phenyl)-1H-imidazol-4-yl)amino)pyrazine-2-carbonitrile]
- IC50 (human Chk2 kinase [5]): > 100 µM

SMILES: N#Cc1cnc(Nc2cn(-c3ccccc3OCCCN)cn2)cn1 [Example 168, 5-((1-(2-(3-Aminopropoxy)phenyl)-1H-imidazol-4-yl)amino)pyrazine-2-carbonitrile]
- IC50 (GBM LN18 cells): 1 to 10 µM
- IC50 [6, 8]: 1 to 10 µM
- IC50 (RSK1): > 10 µM
- IC50 (RSK2): 7.07 µM
- IC50 (RSK3): 5.83 µM
- IC50 (RSK4): > 10 µM

SMILES: CN(C)C1CCCN(c2cccc(-n3cnc(Nc4cnc(C#N)cn4)c3)c2)C1 (single isomer, unassigned) [Example 112, 5-((1-(3-(3-(Dimethylamino)piperidin-1-yl)phenyl)-1H-imidazol-4-yl)amino)pyrazine-2-carbonitrile]
- IC50 (human Chk2 kinase [5]): 10 to 100 µM

SMILES: N#Cc1cnc(Nc2cn(-c3ccc(N4CCC(N5CC6(CCC6)C5)C4)cc3)cn2)cn1 (single isomer, unassigned) [Example 132, 5-((1-(4-(3-(2-Azaspiro[3.3]heptan-2-yl)pyrrolidin-1-yl)phenyl)-1H-imidazol-4-yl)amino)pyrazine-2-carbonitrile]
- IC50 (human Chk2 kinase [5]): 1 to 10 µM

SMILES: CN[C@@H]1CCN(c2ccc(-n3cnc(Nc4cnc(C#N)cn4)c3)cc2)C1 [Example 155, (R)-5-((1-(4-(3-(Methylamino)pyrrolidin-1-yl)phenyl)-1H-imidazol-4-yl)amino)pyrazine-2-carbonitrile]
- IC50 (GBM LN18 cells): < 1 µM
- IC50 ([6]; SW-620, 2 h, neocarzinostatin 7.5 μM): < 1 µM
- Number of 372 kinases inhibited relative to Chk1 IC50 Within 10-fold [7]: 1
- Number of 372 kinases inhibited relative to Chk1 IC50 Within 100-fold [7]: 6
- IC50 (RSK1): 3.42 µM
- IC50 (RSK2): 1.12 µM
- IC50 (RSK3): 0.822 µM
- IC50 (RSK4): 1.96 µM
- IC50 (human Chk1 kinase [2]): < 0.01 µM
- IC50 (human Chk2 kinase [3]): 1 to 10 µM

SMILES: N#Cc1cnc(Nc2cn(-c3cccc(N4CCC(N)C(F)(F)C4)c3)cn2)cn1 (single isomer, unassigned) [Example 167, 5-((1-(3-(4-Amino-3,3-difluoropiperidin-1-yl)phenyl)-1H-imidazol-4-yl)amino)pyrazine-2-carbonitrile]
- IC50 (human Chk2 kinase [5]): > 100 µM

SMILES: CN(C)CC1CN(c2cccc(-n3cnc(Nc4cnc(C#N)cn4)c3)c2)CCO1 (single isomer, unassigned) [Example 108, 5-((1-(3-(2-((Dimethylamino)methyl)morpholino)phenyl)-1H-imidazol-4-yl)amino)pyrazine-2-carbonitrile]
- IC50 (human Chk2 kinase [5]): 10 to 100 µM
- IC50 (human Chk1 kinase [2]): 0.01 to 0.0316 µM

SMILES: COc1cccc(OCCCN)c1-c1cc(Nc2cnc(C#N)cn2)n[nH]1 [Comparator Ex. 1, 5-((5-(2-(3-Aminopropoxy)-6-methoxyphenyl)-1H-pyrazol-3-yl)amino)pyrazine-2-carbonitrile, reference compound]
- IC50 (RSK1): 0.02 µM
- IC50 (RSK2): 0.002 µM
- IC50 (RSK3): 0.004 µM
- IC50 (RSK4): 0.005 µM

SMILES: CN(C)[C@@H]1CCN(c2ccc(-n3cnc(Nc4cnc(C#N)cn4)c3)cc2)C1 [Example 12, (R)-5-((1-(4-(3-(Dimethylamino)pyrrolidin-1-yl)phenyl)-1H-imidazol-4-yl)amino)pyrazine-2-carbonitrile]
- IC50 (GBM LN18 cells): < 1 µM
- IC50 [6, 8]: < 1 µM
- IC50 (RSK1): > 10 µM
- IC50 (RSK2): 6.62 µM
- IC50 (RSK3): 4.34 µM
- IC50 (RSK4): 9.2 µM
- IC50 (human Chk1 kinase [2]): < 0.01 µM
